From PubChem BioAssay (NCI)
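Five concentrations, 48 hours, 96-well plates. Definition used: TGI = concentration required for complete inhibition of growth.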

Experiments:
Assay in all cases: NCI anticancer screen, dose series, 48 h
[1] = system: MDA-MB-231 breast
[2] = system: SK-MEL-28 melanoma
[3] = system: HCT-116 colon
[4] = system: LOX IMVI melanoma
[5] = system: ACHN renal
[6] = system: NCI/ADR-RES ovarian
[7] = system: IGROV1 ovarian
[8] = system: BT-549 breast
[9] = system: MDA-N
[10] = system: SNB-75 CNS
[11] = system: UACC-257 melanoma
[12] = system: NCI-H23 lung
[13] = system: 786-0 renal
[14] = system: OVCAR-5 ovarian
[15] = system: SW-620 colon
[16] = system: NCI-H460 lung
[17] = system: K-562 leukemia
[18] = system: HCC-2998 colon
[19] = system: MCF7 breast
[20] = system: SK-MEL-2 melanoma
[21] = system: NCI-H522 lung
[22] = system: SN12C renal
[23] = system: U251 CNS
[24] = system: OVCAR-8 ovarian
[25] = system: OVCAR-3 ovarian
[26] = system: KM12 colon
[27] = system: TK-10 renal
[28] = system: COLO 205 colon
[29] = system: SNB-19 CNS
[30] = system: MDA-MB-435
[31] = system: MALME-3M melanoma
[32] = system: SF-539 CNS
[33] = system: UACC-62 melanoma
[34] = system: SK-MEL-5 melanoma
[35] = system: M14 melanoma
[36] = system: HT29 colon
[37] = system: T-47D breast
[38] = system: UO-31 renal
[39] = system: OVCAR-4 ovarian
[40] = system: HOP-62 NSCLC
[41] = system: CAKI-1 renal
[42] = system: MOLT-4 leukemia
[43] = system: SR leukemia
[44] = system: HS 578T breast
[45] = system: RPMI-8226 leukemia
[46] = system: HCT-15 colon
[47] = system: PC-3 prostate
[48] = system: SF-268 CNS
[49] = system: SK-OV-3 ovarian
[50] = system: A549 NSCLC
[51] = system: CCRF-CEM leukemia
[52] = system: DU-145 prostate
[53] = system: HL-60(TB) leukemia
[54] = system: HOP-92 NSCLC
[55] = system: RXF 393 renal
[56] = system: SF-295 CNS
[57] = system: NCI-H226 lung
[58] = system: EKVX NSCLC

Question: Which results are given for `O=C1C(=O)c2ccccc2C(O)=C1CCCCCCCCC1CCCCC1`?
Answer: TGI [1]: 17.3 µM; TGI [2]: 35 µM; TGI [3]: 12.3 µM; TGI [4]: 15.8 µM; TGI [5]: 15.6 µM; TGI [6]: 25.3 µM; TGI [7]: 19.2 µM; TGI [8]: 27.5 µM; TGI [9]: 17.9 µM; TGI [10]: 22.9 µM; TGI [11]: 72.8 µM; TGI [12]: 14.5 µM; TGI [13]: 18.9 µM; TGI [14]: 32.2 µM; TGI [15]: 17.7 µM; TGI [16]: 15.9 µM; TGI [17]: 12.1 µM; TGI [18]: 24.4 µM; TGI [19]: 19.4 µM; TGI [20]: 30.2 µM; TGI [21]: 25.7 µM; TGI [22]: 22.3 µM; TGI [23]: 17.8 µM; TGI [24]: 29.5 µM; TGI [25]: 26.5 µM; TGI [26]: 23.1 µM; TGI [27]: 38.7 µM; TGI [28]: 22.7 µM; TGI [29]: 25.1 µM; TGI [30]: 17.2 µM; TGI [31]: 10.2 µM; TGI [32]: 22.4 µM; TGI [33]: 18.4 µM; TGI [34]: 23.7 µM; TGI [35]: 26.2 µM; TGI [36]: 31 µM; TGI [37]: 21.5 µM; TGI [38]: 20.6 µM; TGI [39]: > 100 µM; TGI [40]: 36.7 µM; TGI [41]: 57 µM; TGI [42]: 12.3 µM; TGI [43]: 54.9 µM; TGI [44]: 39.6 µM; TGI [45]: 56.7 µM; TGI [46]: 19.2 µM; TGI [47]: 19.5 µM; TGI [48]: 22.6 µM; TGI [49]: 54.4 µM; TGI [50]: 23.5 µM; TGI [51]: 13.6 µM; TGI [52]: 33.4 µM

Question: Which results are given for `COc1cc(-c2oc(C=Nc3ccccc3)c([N+](=O)[O-])c2-c2ccc(O)c(OC)c2)ccc1O`?
Answer: TGI [1]: > 95.7 µM; TGI [2]: 68.7 µM; TGI [53]: 4.28 µM; TGI [3]: > 68.5 µM; TGI [4]: > 100 µM; TGI [5]: 32 µM; TGI [6]: > 68.1 µM; TGI [7]: 52.5 µM; TGI [8]: > 100 µM; TGI [9]: > 85.7 µM; TGI [10]: 64.4 µM; TGI [11]: > 73.6 µM; TGI [12]: 33.9 µM; TGI [13]: > 58.3 µM; TGI [14]: > 89.6 µM; TGI [15]: > 85.3 µM; TGI [16]: 35.5 µM; TGI [17]: > 100 µM; TGI [54]: > 51.9 µM; TGI [18]: 30.5 µM; TGI [19]: > 100 µM; TGI [20]: > 100 µM; TGI [21]: 30.2 µM; TGI [22]: > 74.4 µM; TGI [23]: 66.1 µM; TGI [24]: > 54.9 µM; TGI [25]: > 100 µM; TGI [26]: > 85.4 µM; TGI [27]: 39.5 µM; TGI [28]: > 63.2 µM; TGI [29]: 80.1 µM; TGI [55]: 51.1 µM; TGI [30]: > 85.9 µM; TGI [32]: 42.9 µM; TGI [33]: 47.2 µM; TGI [34]: > 79.5 µM; TGI [35]: > 100 µM; TGI [56]: > 95.7 µM; TGI [36]: > 55.9 µM; TGI [37]: > 100 µM; TGI [38]: 29.6 µM; TGI [39]: 67.8 µM; TGI [40]: > 100 µM; TGI [57]: > 100 µM; TGI [41]: 47.2 µM; TGI [42]: > 84.7 µM; TGI [43]: 9.8 µM; TGI [44]: > 100 µM; TGI [45]: 72.4 µM; TGI [46]: 42.3 µM; TGI [47]: > 64.5 µM; TGI [48]: 73.7 µM; TGI [49]: > 64.7 µM; TGI [50]: > 87.2 µM; TGI [51]: > 100 µM; TGI [58]: > 73.9 µM; TGI [52]: 53.3 µM
